According to patent US12569509B2, “Method and composition for preventing and treating viral infections” (priority 2017, dated 2026):
Where “and” joins values, the source holds several entries; their conditions need not be identical. Equal entries are not always repeated.

Key:
human PBMC [1] = experiment: LPS stimulated cytokine secretion in human PBMC pretreated with compounds (Phase 2); assay type: cell-based; settings: LPS alone, 1 ng/mL, 8-hour stimulation; for IL-2 concentration in supernatant: LLOQ = 1.698 pg/mL; for TNF-α concentration in supernatant: LLOQ = 2.018 pg/mL; for IL-1β concentration in supernatant: LLOQ = 2.299 pg/mL; for IFN-g concentration in supernatant: LLOQ = 2.792 pg/mL; for IL-6 concentration in supernatant: LLOQ = 0.831
Excerpt: Results are represented as fold-change relative to LPS treatment alone for each cytokine calculated by means from 3 separate donors.
RPMI medium alone, RPMI supplemented with 0.2% DMSO (to mimic treatment conditions) or LPS stimulation alone were used as controls.
Except for the two negative control conditions, all 3 donors responded to all experimental conditions tested with the secretion of TNF-α, IL-1β, and IL-6 albeit with a high degree of variability.

human PBMC [2] = experiment: LPS concentration optimization, cytokine release in human PBMC (Phase 1); assay type: cell-based; settings: for IL-2 Mean Concentration in supernatant / IFN-g Mean Concentration in supernatant: Donors 1-3; for IL-2 Mean Concentration in supernatant: LLOQ = 2.387 pg/mL; for IFN-g Mean Concentration in supernatant: LLOQ = 2.872 pg/mL; for IL-1β Mean Concentration in supernatant / IL-6 Mean Concentration in supernatant / TNF-α Mean Concentration in supernatant: individual Donors 1-3

Substance: Lipopolysaccharide [LPS]
- IL-2 concentration in supernatant (human PBMC [1]; Donor 1): <LLOQ
- TNF-α concentration in supernatant (human PBMC [1]; Donor 1): 1417.82 pg/mL
- IL-1β concentration in supernatant (human PBMC [1]; Donor 1): 2362.87 pg/mL
- IFN-g concentration in supernatant (human PBMC [1]; Donor 1): <LLOQ
- IL-6 concentration in supernatant (human PBMC [1]; Donor 1): 863.49 pg/mL
- IL-2 concentration in supernatant (human PBMC [1]; Donor 2): <LLOQ
- TNF-α concentration in supernatant (human PBMC [1]; Donor 2): 1375.72 pg/mL
- IL-1β concentration in supernatant (human PBMC [1]; Donor 2): 2485.92 pg/mL
- IFN-g concentration in supernatant (human PBMC [1]; Donor 2): <LLOQ
- IL-6 concentration in supernatant (human PBMC [1]; Donor 2): 760.26 pg/mL
- IL-2 concentration in supernatant (human PBMC [1]; Donor 3): <LLOQ
- TNF-α concentration in supernatant (human PBMC [1]; Donor 3): 4449.11 pg/mL
- IL-1β concentration in supernatant (human PBMC [1]; Donor 3): 3881.34 pg/mL
- IFN-g concentration in supernatant (human PBMC [1]; Donor 3): <LLOQ
- IL-6 concentration in supernatant (human PBMC [1]; Donor 3): 760.26 pg/mL
- Secretion of IL-1b, IL-6 and TNF-α (human PBMC [2]; 1 ng/mL LPS, after 8 hours): robust secretion
- Secretion of IL-2 or IFN-g (human PBMC [2]; 1 ng/mL LPS, after 8 hours): No secretion
- IL-2 Mean Concentration in supernatant (human PBMC [2]; LPS 1 ng/mL, 8-hour): <LLOQ
- IFN-g Mean Concentration in supernatant (human PBMC [2]; LPS 1 ng/mL, 8-hour): <LLOQ
- IL-1β Mean Concentration in supernatant (human PBMC [2]; LPS 1 ng/mL, 8-hour): 403.43 pg/mL and 575.75 pg/mL and 1756.56 pg/mL (2×)
- IL-6 Mean Concentration in supernatant (human PBMC [2]; LPS 1 ng/mL, 8-hour): 64.83 pg/mL and 659.3 pg/mL and 1103.64 pg/mL (2×)
- TNF-α Mean Concentration in supernatant (human PBMC [2]; LPS 1 ng/mL, 8-hour): 670.9 pg/mL and 817.83 pg/mL and 1149.23 pg/mL (2×)
- IL-2 Mean Concentration in supernatant (human PBMC [2]; LPS 1 ng/mL, 24-hour): <LLOQ
- IFN-g Mean Concentration in supernatant (human PBMC [2]; LPS 1 ng/mL, 24-hour): <LLOQ
- IL-1β Mean Concentration in supernatant (human PBMC [2]; LPS 1 ng/mL, 24-hour): 923.42 pg/mL and 1164.43 pg/mL and 2396.79 pg/mL
- IL-6 Mean Concentration in supernatant (human PBMC [2]; LPS 1 ng/mL, 24-hour): 1284.85 pg/mL and 1269.72 pg/mL and 1897.32 pg/mL
- TNF-α Mean Concentration in supernatant (human PBMC [2]; LPS 1 ng/mL, 24-hour): 1768.29 pg/mL and 2299.94 pg/mL and 2108.58 pg/mL
- IL-2 Mean Concentration in supernatant (human PBMC [2]; LPS 10 ng/mL, 8-hour): <LLOQ
- IFN-g Mean Concentration in supernatant (human PBMC [2]; LPS 10 ng/mL, 8-hour): <LLOQ
- IL-1β Mean Concentration in supernatant (human PBMC [2]; LPS 10 ng/mL, 8-hour): 404.91 pg/mL and 879.72 pg/mL and 1768.06 pg/mL
- IL-6 Mean Concentration in supernatant (human PBMC [2]; LPS 10 ng/mL, 8-hour): 192.2 pg/mL and 830.13 pg/mL and 1084.03 pg/mL
- TNF-α Mean Concentration in supernatant (human PBMC [2]; LPS 10 ng/mL, 8-hour): 912.13 pg/mL and 955.81 pg/mL and 1113.95 pg/mL
- IL-2 Mean Concentration in supernatant (human PBMC [2]; LPS 10 ng/mL, 24-hour): <LLOQ
- IFN-g Mean Concentration in supernatant (human PBMC [2]; LPS 10 ng/mL, 24-hour): <LLOQ
- IL-1β Mean Concentration in supernatant (human PBMC [2]; LPS 10 ng/mL, 24-hour): 986.68 pg/mL and 1038.39 pg/mL and 2391.98 pg/mL
- IL-6 Mean Concentration in supernatant (human PBMC [2]; LPS 10 ng/mL, 24-hour): 1393.01 pg/mL and 1167.49 pg/mL and 2016.76 pg/mL
- TNF-α Mean Concentration in supernatant (human PBMC [2]; LPS 10 ng/mL, 24-hour): 2316.87 pg/mL and 1605.58 pg/mL and 2139.91 pg/mL
- IL-2 Mean Concentration in supernatant (human PBMC [2]; LPS 50 ng/mL, 8-hour): <LLOQ
- IFN-g Mean Concentration in supernatant (human PBMC [2]; LPS 50 ng/mL, 8-hour): <LLOQ
- IL-1β Mean Concentration in supernatant (human PBMC [2]; LPS 50 ng/mL, 8-hour): 327.69 pg/mL and 1002.11 pg/mL and 1751.4 pg/mL
- IL-6 Mean Concentration in supernatant (human PBMC [2]; LPS 50 ng/mL, 8-hour): 75.24 pg/mL and 880.71 pg/mL and 1096.09 pg/mL
- TNF-α Mean Concentration in supernatant (human PBMC [2]; LPS 50 ng/mL, 8-hour): 511.42 pg/mL and 1143.84 pg/mL and 1051.41 pg/mL
- IL-2 Mean Concentration in supernatant (human PBMC [2]; LPS 50 ng/mL, 24-hour): <LLOQ
- IFN-g Mean Concentration in supernatant (human PBMC [2]; LPS 50 ng/mL, 24-hour): <LLOQ
- IL-1β Mean Concentration in supernatant (human PBMC [2]; LPS 50 ng/mL, 24-hour): 899.92 pg/mL and 1170.32 pg/mL and 2216.54 pg/mL
- IL-6 Mean Concentration in supernatant (human PBMC [2]; LPS 50 ng/mL, 24-hour): 1317.99 pg/mL and 1333.24 pg/mL and 1966.58 pg/mL
- TNF-α Mean Concentration in supernatant (human PBMC [2]; LPS 50 ng/mL, 24-hour): 1680.24 pg/mL and 1378.24 pg/mL and 1954.44 pg/mL
- IL-2 Mean Concentration in supernatant (human PBMC [2]; LPS 100 ng/mL, 8-hour): <LLOQ
- IFN-g Mean Concentration in supernatant (human PBMC [2]; LPS 100 ng/mL, 8-hour): <LLOQ
- IL-1β Mean Concentration in supernatant (human PBMC [2]; LPS 100 ng/mL, 8-hour): 298.82 pg/mL and 873.62 pg/mL and 1222.41 pg/mL
- IL-6 Mean Concentration in supernatant (human PBMC [2]; LPS 100 ng/mL, 8-hour): 37.62 pg/mL and 820.5 pg/mL and 817.27 pg/mL
- TNF-α Mean Concentration in supernatant (human PBMC [2]; LPS 100 ng/mL, 8-hour): 386.41 pg/mL and 1313.93 pg/mL and 868.83 pg/mL
- IL-2 Mean Concentration in supernatant (human PBMC [2]; LPS 100 ng/mL, 24-hour): <LLOQ
- IFN-g Mean Concentration in supernatant (human PBMC [2]; LPS 100 ng/mL, 24-hour): <LLOQ
- IL-1β Mean Concentration in supernatant (human PBMC [2]; LPS 100 ng/mL, 24-hour): 913.95 pg/mL and 1182.07 pg/mL and 2282.4 pg/mL
- IL-6 Mean Concentration in supernatant (human PBMC [2]; LPS 100 ng/mL, 24-hour): 1390.38 pg/mL and 1243.06 pg/mL and 2083.25 pg/mL
- TNF-α Mean Concentration in supernatant (human PBMC [2]; LPS 100 ng/mL, 24-hour): 1792.89 pg/mL and 1332.65 pg/mL and 2343.08 pg/mL
- IL-2 Mean Concentration in supernatant (human PBMC [2]; LPS 1000 ng/mL, 8-hour): <LLOQ
- IFN-g Mean Concentration in supernatant (human PBMC [2]; LPS 1000 ng/mL, 8-hour): <LLOQ
- IL-1β Mean Concentration in supernatant (human PBMC [2]; LPS 1000 ng/mL, 8-hour): 1008.83 pg/mL and 1979.93 pg/mL and 441.01 pg/mL
- IL-6 Mean Concentration in supernatant (human PBMC [2]; LPS 1000 ng/mL, 8-hour): 895.76 pg/mL and 1251.62 pg/mL and 166.25 pg/mL
- TNF-α Mean Concentration in supernatant (human PBMC [2]; LPS 1000 ng/mL, 8-hour): 1276.06 pg/mL and 1481.27 pg/mL and 498.68 pg/mL
- IFN-g Mean Concentration in supernatant (human PBMC [2]; LPS 1000 ng/mL, 24-hour): <LLOQ
- IL-1β Mean Concentration in supernatant (human PBMC [2]; LPS 1000 ng/mL, 24-hour): 1145.77 pg/mL and 2192.5 pg/mL and 799.96 pg/mL
- IL-6 Mean Concentration in supernatant (human PBMC [2]; LPS 1000 ng/mL, 24-hour): 1519.68 pg/mL and 2426.8 pg/mL and 1363.37 pg/mL
- TNF-α Mean Concentration in supernatant (human PBMC [2]; LPS 1000 ng/mL, 24-hour): 2286.74 pg/mL and 3069.72 pg/mL and 1675.83 pg/mL
- Production of TNF-α, IL-1β, and IL-6 (human PBMC [2]; LPS ≥1 ng/mL, 8 and 24 hours, all donors): robust production
